Data on two compounds can be found in patent US10478455B2, “Therapeutic use of tetrathiomolybdate” (UCL BUSINESS LTD, priority 2010, dated 2019).

The test system of series [1] is Male Wistar rats. Put plainly: Study 1: oxygen consumption and carbon dioxide production in awake rats in a metabolic cart. The class given is in vivo, rat. The protocol: Male Wistar rats (300 g) were anaesthetised and instrumented with a venous line for drug administration. The animals were placed into a metabolic cart and allowed to recover from anaesthesia. After 2 h, TTM was administered i.v. hourly at increasing doses (2, 5, 10 and 20 mg/kg). Oxygen consumption and carbon dioxide production were continually monitored for the duration of the experiment. TTM induced a clear drop in oxygen consumption and carbon dioxide production at 10 and 20 mg/kg (FIG. 1), compared to time-matched control animals (sham) receiving only vehicle (saline).

Series [2] concerns Male Wistar rats. The series can be described thus: Study 2: core temperature in anaesthetised rats. The class given is in vivo, rat. To be noted: anaesthetised rats, 0.2, 2 and 20 mg/kg every 20 minutes; measured 20 minutes after the last dose, vs saline. The protocol:
Animals were anaesthetised and instrumented as above. Under continuous anaesthesia, TTM was administered every 20 minutes at increasing doses (0.2, 2 and 20 mg/kg). Core temperature was measured at the beginning of the experiment (i.e. before TTM administration) and 20 minutes after the last dose of the drug (20 mg/kg).

Another series relates to endotoxaemic animals. The series can be described thus: Study 3: core temperature during endotoxaemia (lipopolysaccharide, Klebsiella pneumoniae). The class given is in vivo, rat. As to the method:
FIG. 3: Protocol for endotoxaemia experiments. ETX is endotoxin, TTM is tetrathiomolybdate. Fluids: a 50:50 mix of colloid and crystalloid plus glucose. TTM was diluted in normal saline and administered as a 4 ml/kg bolus. Animals received a venous line for drug administration under anaesthesia. Endotoxaemia (which typically causes an increase in core temperature) was induced by intravenous administration of lipopolysaccharide (20 mg/kg, Klebsiella pneumoniae). TTM or vehicle was administered 1 h following the onset of endotoxaemia (FIG. 3; protocol).

Series [3] in a line: Study 4: plasma sulphide after i.v. TTM (monobromobimane-based HPLC assay). The class given is in vivo, rat. The protocol:
This study investigated sulphide release from tetrathiomolybdate (TTM). Male Wistar rats were anaesthetized allowing insertion of carotid arterial and jugular venous lines for blood sampling and drug administration, respectively. Plasma sulphide levels (measured using a monobromobimane-based HPLC assay) were determined up to 2 h following bolus i.v. administration of TTM (10 mg/kg) or for 3 h after the onset of two continuous i.v. infusions (10 and 20 mg/kg/h).

In a further series the test system is Soleus muscle fibres. Put plainly: Study 5: ex-vivo inhibition of oxygen consumption in permeabilized soleus muscle fibres (Clark electrode). The settings on record: TTM 0.5-2 mM, saponin-permeabilized rat soleus muscle fibres. The protocol: This study investivated ex-vivo Inhibition of oxygen consumption by TTM. Soleus muscle was removed from the hind limbs of male Wistar rats and preserved on ice in a physiological buffer solution. Muscle fibres were isolated with forceps and permeabilized with saponin. Muscle fibres were placed in a closed chamber containing a physiological solution and substrates for oxidative metabolism. Oxygen concentrations within the chamber were measured using a Clark electrode. The fall in oxygen concentration over time (gradient) reflects oxygen consumption by the tissue. Either vehicle or TTM (0.5-2 mM) was added to the chamber and oxygen consumption assessed. […] This further highlights the ability of TTM to decrease metabolism.

Series [4] relates to rat model of haemorrhage/reperfusion injury. Put plainly: Study 6: rat model of haemorrhage/reperfusion injury. The class given is in vivo. As to the method:
This study investigated effects of TTM in a rat model of haemorrhage/reperfusion injury. Male Wistar rats were anaesthetized for insertion of carotid arterial and jugular venous lines for blood removal and fluid/drug administration, respectively. After 30 min stabilization, 50% estimated circulating blood volume was removed from the arterial line over 15 min. Animals were monitored for a further 90 min prior to resuscitation, then randomized to receive either TTM or placebo (normal saline). TTM (10 mg/kg) was administered as an i.v. bolus (2 ml/kg). This was immediately followed by administration of shed blood over 15 min. In TTM-treated animals, the shed blood was supplemented with a further 2.5 mg/kg TTM; total dose 12.5 mg/kg. Placebo treated animals received equivalent volumes of fluid and administration of shed blood. Following resuscitation, both groups of animals received 10 ml/kg/h n-saline and were monitored up to 6 h post-resuscitation. […] Thus, TTM administration improves outcome following severe haemorrhage/reperfusion injury. This beneficial effect is potentially mediated by modulation of metabolism.

The next series relates to Wilson's disease. To be noted: cited from earlier work.
[5] abbreviates: awake rats, TTM i.v. hourly at increasing doses, effect at 10 and 20 mg/kg vs sham (saline).

Regarding `[SH-].[SH-].[S]=[Mo]=[S]` [TTM, Tetrathiomolybdate], the conscious level result with Male Wistar rats [1] (awake rats during intravenous infusion of TTM) is recorded as “conscious level was maintained”. Moreover, in the series with Male Wistar rats [1] (setting [5]), the carbon dioxide production result is on record as “clear drop”. In addition, the oxygen consumption result in the series with Male Wistar rats [1] (setting [5]) was “clear drop”. Moreover, the core temperature entry is reported as “decrease in core temperature” in the series on Male Wistar rats [2] and “Core temperature fell” in series [4] (TTM total dose 12.5 mg/kg, haemorrhage/reperfusion). Also, the “core temperature at highest dose” value with endotoxaemic animals (TTM 20 mg/kg, 1 h after onset of endotoxaemia) is on record as “induced significant hypothermia”. Further, the “hyperthermic response to endotoxin (core temperature)” value in the series on endotoxaemic animals (TTM given 1 h after onset of endotoxaemia (LPS 20 mg/kg i.v.)) is “ablated the hyperthermic response to endotoxin”. In series [3] (bolus i.v. 10 mg/kg), the plasma sulphide half-life was 17 min. In addition, the plasma sulphide levels entry was “high levels of sulphide in plasma” in series [3] (bolus i.v. 10 mg/kg, up to 2 h); “dose-dependent increase in plasma sulphide levels” in series [3] (continuous i.v. infusion 10 and 20 mg/kg/h, 3 h). For the same compound, the “time to steady state of plasma sulphide” value in series [3] (continuous i.v. infusion 10 and 20 mg/kg/h) is given as 2 h. Also, in the series on Soleus muscle fibres, the “oxygen consumption ex vivo” value was “dose-dependent inhibition of oxygen consumption”. In series [4] (TTM 10 mg/kg i.v. bolus plus 2.5 mg/kg in shed blood (total 12.5 mg/kg) vs placebo), the “6 h survival post-resuscitation” value was “significant improvement in 6 h survival”.

As to ammonium TTM, the “neurological function in patients who present with neurologic disease” value in the series on Wilson's disease is given as “preserves neurological function”.
